pIC50: −log10 of the molar value.
Key:
human PTPN2 (1-387) = human PTPN2 (1-387) (Homo sapiens (Human), UniProt P17706); assay: Human PTPN2 Biochemical Assay; conditions: DiFMUP substrate
How it was run: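 Fluorogenic DiFMUP hydrolysis (1 h, room temperature, read ex 360/em 460 nm) after 30 min compound preincubation with PTPN2 residues 1-387, in 50 mM Tris pH 7.4, 150 mM NaCl, 0.01% Tween20, 0.5 mM DTT. Effects scaled between buffer and enzyme controls, 4-parameter fit gives EC50.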

human PTPN1 (1-435) = human PTPN1 (1-435) (Homo sapiens (Human), UniProt P18031); assay: Human PTPN1 Biochemical Assay; conditions: DiFMUP substrate, read-out: PTP1B IC50
Sequence of human PTPN1 (1-435) (P18031 whole entry): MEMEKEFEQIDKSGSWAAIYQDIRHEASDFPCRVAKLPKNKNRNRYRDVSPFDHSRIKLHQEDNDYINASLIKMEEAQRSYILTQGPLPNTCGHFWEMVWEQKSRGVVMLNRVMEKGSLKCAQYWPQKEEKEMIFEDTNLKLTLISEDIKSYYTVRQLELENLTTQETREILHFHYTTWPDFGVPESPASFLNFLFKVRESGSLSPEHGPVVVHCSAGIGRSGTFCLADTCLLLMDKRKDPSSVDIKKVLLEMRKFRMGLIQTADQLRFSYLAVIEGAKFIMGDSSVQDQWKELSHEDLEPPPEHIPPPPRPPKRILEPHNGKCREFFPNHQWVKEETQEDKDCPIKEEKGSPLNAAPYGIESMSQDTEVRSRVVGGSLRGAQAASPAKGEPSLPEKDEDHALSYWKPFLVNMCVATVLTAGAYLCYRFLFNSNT
How it was run: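 Read-out is DiFMUP hydrolysis fluorescence (360 nm excitation, 460 nm emission) after 1 h at room temperature, following 30 min enzyme–compound preincubation.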

Sequence of human PTPN2 (1-387) (P17706 other isoform, or with tags, fused parts or gaps): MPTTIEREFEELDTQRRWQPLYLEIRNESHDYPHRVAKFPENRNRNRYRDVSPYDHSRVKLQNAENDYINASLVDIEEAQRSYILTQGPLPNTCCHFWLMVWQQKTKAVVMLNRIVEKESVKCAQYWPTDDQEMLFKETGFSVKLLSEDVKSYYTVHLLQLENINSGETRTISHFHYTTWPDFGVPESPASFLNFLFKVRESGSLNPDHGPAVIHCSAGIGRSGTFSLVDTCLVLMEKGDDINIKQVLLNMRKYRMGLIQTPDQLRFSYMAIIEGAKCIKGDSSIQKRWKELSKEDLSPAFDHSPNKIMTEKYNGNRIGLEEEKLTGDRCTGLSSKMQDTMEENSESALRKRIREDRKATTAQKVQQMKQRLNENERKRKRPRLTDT

Row | SMILES | pIC50 (human PTPN2 (1-387)) | pIC50 (human PTPN1 (1-435))
1 | CN(C)CCNC(=O)c1cc(OCCCC(F)(F)F)c2sc(C(F)(F)P(=O)(O)O)c(Br)c2c1 [Compound 211] | 6.29 | 6.16
2 | O=C(Nc1ccc2sc(C(F)(F)P(=O)(O)O)c(Br)c2c1)c1ccc(F)cc1 [Compound 212, ((3-bromo-5-(4-fluorobenzamido)benzo[b]thiophen-2-yl)difluoromethyl)phosphonic acid] | 5.01 | 5.09
3 | O=C(Nc1ccc2sc(C(F)(F)P(=O)(O)O)c(Br)c2c1)C(F)(F)F [Compound 213] | 5.20 | 5.28
4 | O=C(Cc1cccnc1)Nc1ccc2sc(C(F)(F)P(=O)(O)O)c(Br)c2c1 [Compound 214] | 5.36 | 5.46
5 | O=C(Nc1ccccc1)c1ccc2sc(C(F)(F)P(=O)(O)O)c(Cl)c2c1 [Compound 215, ((3-chloro-5-(phenylcarbamoyl)benzo[b]thiophen-2-yl)difluoromethyl)phosphonic acid] | 5.07 | 5.12
6 | O=C(Nc1ccccc1)c1ccc2sc(C(F)(F)P(=O)(O)O)c(C(F)F)c2c1 [Compound 216, ((3-(difluoromethyl)-5-(phenylcarbamoyl)benzo[b]thiophen-2-yl)difluoromethyl)phosphonic acid] | 5.24 | 5.19
7 | Cc1[nH]cnc1CNC(=O)c1ccc2sc(C(F)(F)P(=O)(O)O)c(Br)c2c1 [Compound 217, ((3-bromo-5-(((5-methyl-1H-imidazol-4-yl)methyl)carbamoyl)benzo[b]thiophen-2-yl)difluoromethyl)phosphonic acid] | 5.15 | 5.73
8 | O=C(NCc1c[nH]cn1)c1ccc2sc(C(F)(F)P(=O)(O)O)c(Br)c2c1 [Compound 218] | 5.69 | 5.54
9 | O=C(Nc1ccccc1)Nc1ccc2sc(C(F)(F)P(=O)(O)O)c(Br)c2c1 [Compound 219, ((3-bromo-5-(3-phenylureido)benzo[b]thiophen-2-yl)difluoromethyl)phosphonic acid] | 5.43 | 5.33
10 | COc1cccc(NCc2ccc3sc(C(F)(F)P(=O)(O)O)c(Br)c3c2)c1 [Compound 220, ((3-bromo-5-(((3-methoxyphenyl)amino)methyl)benzo[b]thiophen-2-yl)difluoromethyl)phosphonic acid] | 5.22 | 5.15
11 | O=P(O)(O)C(F)(F)c1sc2ccc(OCCc3ccccc3)cc2c1Br [Compound 221, ((3-bromo-5-phenethoxybenzo[b]thiophen-2-yl)difluoromethyl)phosphonic acid] | 5.18 | 5.46
12 | O=P(O)(O)C(F)(F)c1sc2c(NCCC3CCCCC3)cccc2c1Br [Compound 223, ((3-bromo-7-((2-cyclohexylethyl)amino)benzo[b]thiophen-2-yl)difluoromethyl)phosphonic acid] | 5.49 | 5.61
13 | CC(C)(O)CCCNc1cccc2c(Br)c(C(F)(F)P(=O)(O)O)sc12 [Compound 224] | 5.79 | 5.62
14 | O=P(O)(O)C(F)(F)c1sc2c(NCCCC(F)(F)F)cccc2c1Br [Compound 226, ((3-bromo-7-((4,4,4-trifluorobutyl)amino)benzo[b]thiophen-2-yl)difluoromethyl)phosphonic acid] | 5.57 | 5.69
15 | O=P(O)(O)C(F)(F)c1sc2ccc(-c3nnc[nH]3)cc2c1Br [Compound 227, ((3-bromo-5-(4H-1,2,4-triazol-3-yl)benzo[b]thiophen-2-yl)difluoromethyl)phosphonic acid] | 6.07 | 6.00
16 | O=P(O)(O)C(F)(F)c1sc2ccc(-c3ncc[nH]3)cc2c1Br [Compound 228, ((3-bromo-5-(1H-imidazol-2-yl)benzo[b]thiophen-2-yl)difluoromethyl)phosphonic acid] | 5.79 | 5.73
17 | O=P(O)(O)C(F)(F)c1sc2ccc(-c3cnn[nH]3)cc2c1Br [Compound 229, ((3-bromo-5-(1H-1,2,3-triazol-5-yl)benzo[b]thiophen-2-yl)difluoromethyl)phosphonic acid] | 7.06 | 6.27
18 | O=P(O)(O)C(F)(F)c1sc2ccc(-c3nc4ccccc4[nH]3)cc2c1Br [Compound 230, ((5-(1H-benzo[d]imidazol-2-yl)-3-bromobenzo[b]thiophen-2-yl)difluoromethyl)phosphonic acid] | 5.76 | 5.99
19 | O=P(O)(O)C(F)(F)c1sc2c(OCCCC(F)(F)F)c(F)ccc2c1Br [Compound 231, ((3-bromo-6-fluoro-7-(4,4,4-trifluorobutoxy)benzo[b]thiophen-2-yl)difluoromethyl)phosphonic acid] | 6.00 | 6.06
20 | O=P(O)(O)C(F)(F)c1sc2c(OCCCC(F)(F)F)cc(-c3nc[nH]n3)cc2c1Br [Compound 232, ((3-bromo-5-(1H-1,2,4-triazol-3-yl)-7-(4,4,4-trifluorobutoxy)benzo[b]thiophen-2-yl)difluoromethyl)phosphonic acid] | 8.51 | 8.47
21 | N#Cc1cc(OCCCC(F)(F)F)c2sc(C(F)(F)P(=O)(O)O)c(Br)c2c1 [Compound 233, ((3-bromo-5-cyano-7-(4,4,4-trifluorobutoxy)benzo[b]thiophen-2-yl)difluoromethyl)phosphonic acid] | 6.84 | 7.11
22 | COC(C)(C)C#Cc1cc(C(N)=O)cc2c(Br)c(C(F)(F)P(=O)(O)O)sc12 [Compound 234, ((3-bromo-5-carbamoyl-7-(3-methoxy-3-methylbut-1-yn-1-yl)benzo[b]thiophen-2-yl)difluoromethyl)phosphonic acid] | 6.11 | 6.31
23 | NC(=O)c1cc(OCCCS(N)(=O)=O)c2sc(C(F)(F)P(=O)(O)O)c(Br)c2c1 [Compound 235, ((3-bromo-5-carbamoyl-7-(3-sulfamoylpropoxy)benzo[b]thiophen-2-yl)difluoromethyl)phosphonic acid] | 7.78 | 7.70

Row | SMILES | pIC50 (human PTPN2 (1-387)) | pIC50 (human PTPN1 (1-435))
24 | O=C(NCc1cccnn1)c1cc(OCCCC2CC2)c2sc(C(F)(F)P(=O)(O)O)c(Br)c2c1 [Compound 236] | 7.87 | 7.82
25 | NC(=O)c1cc(OCCOCC(F)(F)F)c2sc(C(F)(F)P(=O)(O)O)c(Br)c2c1 [Compound 237] | 6.36 | 6.26
26 | CCOc1cc(C(N)=O)cc2c(Br)c(C(F)(F)P(=O)(O)O)sc12 [Compound 238] | 6.64 | 6.49
27 | CCCCCOc1cc(C(N)=O)cc2c(Br)c(C(F)(F)P(=O)(O)O)sc12 [Compound 239] | 7.27 | 7.26
28 | CCCCOc1cc(C(N)=O)cc2c(Br)c(C(F)(F)P(=O)(O)O)sc12 [Compound 240] | 7.01 | 6.95
29 | N#CCCCCOc1cc(C(N)=O)cc2c(Br)c(C(F)(F)P(=O)(O)O)sc12 [Compound 241] | 7.30 | 7.21
30 | NC(=O)c1cc(OCc2ccccc2F)c2sc(C(F)(F)P(=O)(O)O)c(Br)c2c1 [Compound 242] | 7.22 | 7.10
31 | N#CCCCCCCOc1cc(C(N)=O)cc2c(Br)c(C(F)(F)P(=O)(O)O)sc12 [Compound 243] | 7.32 | 7.16
32 | N#CCOc1cc(C(N)=O)cc2c(Br)c(C(F)(F)P(=O)(O)O)sc12 [Compound 244] | 6.64 | 6.59
33 | NC(=O)COc1cc(C(N)=O)cc2c(Br)c(C(F)(F)P(=O)(O)O)sc12 [Compound 245] | 5.83 | 6.04
34 | NC(=O)c1cc(OCc2cc(F)cc(C(F)(F)F)c2)c2sc(C(F)(F)P(=O)(O)O)c(Br)c2c1 [Compound 247] | 7.26 | 7.03
35 | CS(=O)(=O)N1CCC(Oc2cc(C(N)=O)cc3c(Br)c(C(F)(F)P(=O)(O)O)sc23)C1 (centres unmarked) [Compound 248] | 7.30 | 7.27
36 | NC(=O)c1cc(OCC2CC3(CC3)C2)c2sc(C(F)(F)P(=O)(O)O)c(Br)c2c1 [Compound 249] | 7.22 | 7.07
37 | NC(=O)c1cc(OCC2CC2(F)F)c2sc(C(F)(F)P(=O)(O)O)c(Br)c2c1 (centres unmarked) [Compound 250] | 7.27 | 7.16
38 | NC(=O)c1cc(OCCOCC(F)F)c2sc(C(F)(F)P(=O)(O)O)c(Br)c2c1 [Compound 251] | 6.57 | 6.37
39 | NC(=O)c1cc(OCCCOC(F)(F)F)c2sc(C(F)(F)P(=O)(O)O)c(Br)c2c1 [Compound 252] | 6.97 | 6.96
40 | NC(=O)c1cc(OCC2CCC(F)(F)CC2)c2sc(C(F)(F)P(=O)(O)O)c(Br)c2c1 [Compound 253] | 7.07 | 6.93
41 | CC(C)CCOc1cc(C(N)=O)cc2c(Br)c(C(F)(F)P(=O)(O)O)sc12 [Compound 254] | 6.95 | 6.81
42 | NC(=O)c1cc(OCCC2CC2)c2sc(C(F)(F)P(=O)(O)O)c(Br)c2c1 [Compound 255] | 7.02 | 6.86
43 | CS(=O)(=O)NCCCOc1cc(C(N)=O)cc2c(Br)c(C(F)(F)P(=O)(O)O)sc12 [Compound 256] | 6.89 | 7.18
44 | NC(=O)c1cc(OCC(=O)Nc2c(F)cccc2F)c2sc(C(F)(F)P(=O)(O)O)c(Br)c2c1 [Compound 257] | 6.53 | 6.63
45 | O=P(O)(O)C(F)(F)c1sc2c(OCCCC(F)(F)F)cc(-c3cnn[nH]3)cc2c1Br [Compound 258, ((3-bromo-5-(1H-1,2,3-triazol-5-yl)-7-(4,4,4-trifluorobutoxy)benzo[b]thiophen-2-yl)difluoromethyl)phosphonic acid] | 8.08 | 8.37
46 | Nc1cc(OCCCC(F)(F)F)c2sc(C(F)(F)P(=O)(O)O)c(Br)c2c1 [Compound 259, ((5-amino-3-bromo-7-(4,4,4-trifluorobutoxy)benzo[b]thiophen-2-yl)difluoromethyl)phosphonic acid] | 6.47 | 6.74

Source: patent US20250059220A1, “SUBSTITUTED BENZOTHIOPHENE DERIVATIVES AND METHODS OF USE THEREOF” (Merck Sharp & Dohme LLC, priority 2021, published 2025)
